The values below come from patent US20230113037A1 (Bayer Aktiengesellschaft, priority 2019, published 2023).

Molecules are shown by their SMILES. Read-outs that look alike come from different tables or passages of the source.

The target of test [1] is T1, AHR (Homo sapiens, UniProt P35869).
T1 construct: U87 MG glioblastoma cells (ATCC #HTB-14) endogenously expressing AHR; endogenous in cells; host or cells: U87 MG glioblastoma cells (ATCC #HTB-14)
T1 sequence (P35869 11-848): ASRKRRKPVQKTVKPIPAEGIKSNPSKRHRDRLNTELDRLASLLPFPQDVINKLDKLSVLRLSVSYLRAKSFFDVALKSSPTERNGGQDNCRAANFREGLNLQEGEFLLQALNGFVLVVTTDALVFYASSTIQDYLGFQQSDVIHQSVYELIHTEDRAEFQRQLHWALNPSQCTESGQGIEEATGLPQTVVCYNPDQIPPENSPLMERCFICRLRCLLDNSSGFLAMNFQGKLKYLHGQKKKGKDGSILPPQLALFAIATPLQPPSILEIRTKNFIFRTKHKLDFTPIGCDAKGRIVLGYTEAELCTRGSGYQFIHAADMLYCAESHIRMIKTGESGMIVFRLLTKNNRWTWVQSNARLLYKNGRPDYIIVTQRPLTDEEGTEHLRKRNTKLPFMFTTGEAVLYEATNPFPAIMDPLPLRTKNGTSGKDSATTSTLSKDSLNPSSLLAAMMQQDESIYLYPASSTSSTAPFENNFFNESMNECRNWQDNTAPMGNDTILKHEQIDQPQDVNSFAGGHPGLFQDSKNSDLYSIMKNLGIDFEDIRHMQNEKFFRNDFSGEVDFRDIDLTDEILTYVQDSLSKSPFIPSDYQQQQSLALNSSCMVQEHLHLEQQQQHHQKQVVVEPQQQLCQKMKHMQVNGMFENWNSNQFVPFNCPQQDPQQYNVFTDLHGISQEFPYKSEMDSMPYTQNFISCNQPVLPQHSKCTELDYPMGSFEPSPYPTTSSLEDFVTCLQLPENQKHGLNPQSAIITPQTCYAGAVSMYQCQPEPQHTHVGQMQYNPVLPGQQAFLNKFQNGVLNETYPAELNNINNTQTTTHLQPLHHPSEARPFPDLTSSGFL
Briefly: In vitro assay 1: antagonism in human cell line (AHR transactivation, firefly luciferase reporter, kynurenic acid prestimulated). The format is cell-based. Particulars: AHR Antagonism Human IC50 [M]. The gist of the method: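 Antagonism measured as loss of kynurenic acid-driven firefly luciferase from DRE reporter in stably transfected U87 MG cells; constitutive Renilla signal monitors cytotoxicity. Positive/negative control normalization, staurosporine 5 μM with 150 μM kynurenic acid as inhibition control; replicates given as mean or median.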

For test [2], the target named is T2, AHR (Mus musculus, UniProt P30561).
T2 sequence (P30561 1-848 P471L/N533S/M589L): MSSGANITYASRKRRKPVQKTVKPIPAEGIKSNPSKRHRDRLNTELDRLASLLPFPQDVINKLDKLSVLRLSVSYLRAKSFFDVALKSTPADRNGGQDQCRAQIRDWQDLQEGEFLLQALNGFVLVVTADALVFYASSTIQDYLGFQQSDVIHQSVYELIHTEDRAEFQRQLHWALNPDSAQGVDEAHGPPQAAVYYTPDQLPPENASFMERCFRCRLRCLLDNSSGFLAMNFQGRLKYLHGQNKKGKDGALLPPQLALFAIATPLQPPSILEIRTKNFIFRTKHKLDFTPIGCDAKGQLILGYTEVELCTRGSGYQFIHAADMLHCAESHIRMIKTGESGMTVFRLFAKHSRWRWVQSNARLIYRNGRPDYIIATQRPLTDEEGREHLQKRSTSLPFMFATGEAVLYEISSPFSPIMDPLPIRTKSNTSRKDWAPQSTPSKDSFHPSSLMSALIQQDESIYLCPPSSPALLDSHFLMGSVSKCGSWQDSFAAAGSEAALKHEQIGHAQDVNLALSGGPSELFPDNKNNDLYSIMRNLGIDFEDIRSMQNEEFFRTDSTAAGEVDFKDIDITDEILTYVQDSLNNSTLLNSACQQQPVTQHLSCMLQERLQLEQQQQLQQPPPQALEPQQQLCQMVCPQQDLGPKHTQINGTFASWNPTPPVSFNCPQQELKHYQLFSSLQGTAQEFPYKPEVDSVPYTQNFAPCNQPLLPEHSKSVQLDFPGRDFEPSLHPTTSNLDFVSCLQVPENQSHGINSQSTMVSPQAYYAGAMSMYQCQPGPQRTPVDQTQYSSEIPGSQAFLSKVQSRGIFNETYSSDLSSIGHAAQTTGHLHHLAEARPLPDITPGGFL
Briefly: In vitro assay 3: antagonism in mouse cell line (AHR transactivation, firefly luciferase reporter, kynurenic acid prestimulated). Format: cell-based. The gist of the method:
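Kynurenic acid-prestimulated mouse reporter cells; stable AHR-inducible firefly luc construct with DRE sites in promoter. No-agonist wells = positive inhibition ctrl. Luminescence normalized to pos/neg ctrls; n>1 reported as mean or median.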
On the technique in general: In a reporter assay the amount or activity of a reporter protein is the signal.

The mark [3] stands for this setting: mouse Hepa 1c1c7 cells, 200 μM kynurenic acid, 20 hours, read-out: AHR Antagonism Mouse IC50.

Broadly, the IC50 is the concentration that gives 50% inhibition.

On to `CCCNC(=O)[C@@H](C)Nc1nc2c(Br)cccc2c2nc(-c3ccc(Cl)cc3OC(F)F)nn12` [Example 692, N^2-{7-bromo-2-[4-chloro-2-(difluoromethoxy)phenyl][1,2,4]triazolo[1,5-c]quinazolin-5-yl}-N-propyl-D-alaninamide], for which the IC50 was 6.79e-10 M on AHR [1] and 0.308 nM on AHR [2] (setting [3]).
Consider `CCCNC(=O)[C@@H](C)Nc1nc2c(Br)cccc2c2nc(-c3ccc(Cl)cc3OC(F)(F)F)nn12` [Example 693, N^2-{7-bromo-2-[4-chloro-2-(trifluoromethoxy)phenyl][1,2,4]triazolo[1,5-c]quinazolin-5-yl}-N-propyl-D-alaninamide], for which the IC50 is 7.43e-09 M against AHR [1] and 2.52 nM on AHR [2] (setting [3]).
The like results for `CC[C@H](Nc1nc2c(Br)cccc2c2nc(-c3cnn(C)c3)nn12)C(N)=O` [Example 694, (2S)-2-{[7-bromo-2-(1-methyl-1H-pyrazol-4-yl)[1,2,4]triazolo[1,5-c]quinazolin-5-yl]amino}butanamide] were, in that order, 1.55e-07 M and 719 nM.
The like results for `O=C1NCCCC[C@@H]1Nc1nc2ccccc2c2nc(-c3cnccn3)nn12` [Example 695, (3S)-3-{[2-(pyrazin-2-yl)[1,2,4]triazolo[1,5-c]quinazolin-5-yl]amino}azepan-2-one] were, in that order, 2.96e-06 M and 2190 nM.
The like results for `CC[C@@H](Nc1nc2c(Br)cccc2c2nc(-c3cnn(C)c3)nn12)C(N)=O` [Example 696, (2R)-2-{[7-bromo-2-(1-methyl-1H-pyrazol-4-yl)[1,2,4]triazolo[1,5-c]quinazolin-5-yl]amino}butanamide] were, in that order, 3.23e-09 M and 8.97 nM.
Regarding `CC[C@@H](Nc1nc2ccccc2c2nc(-c3ccc(Br)cc3OC(F)(F)F)nn12)C(N)=O` [Example 697, (2R)-2-({2-[4-bromo-2-(trifluoromethoxy)phenyl][1,2,4]triazolo[1,5-c]quinazolin-5-yl}amino)butanamide], the figures for the 50% inhibitory concentration (IC50) on AHR [1] and on AHR [2] (setting [3]) were 6.22e-09 M and 1.19 nM, respectively.
On to `CC[C@H](Nc1nc2c(Br)cccc2c2nc(-c3ccc(Cl)cc3OC(F)F)nn12)C(N)=O` [Example 698, (2S)-2-({7-bromo-2-[4-chloro-2-(difluoromethoxy)phenyl][1,2,4]triazolo[1,5-c]quinazolin-5-yl}amino)butanamide], for which the half-maximal inhibitory concentration (IC50) against AHR [1] was 4.68e-08 M; at AHR [2] (read-out: AHR Antagonism Mouse IC50, mouse Hepa 1c1c7 cells, 200 μM kynurenic acid, 20 hours) it was 7.35 nM.
On to `COc1ccc(-c2nc3c4cccc(Br)c4nc(N[C@@H]4COCCNC4=O)n3n2)cc1` [Example 699, (6R)-6-{[7-bromo-2-(4-methoxyphenyl)[1,2,4]triazolo[1,5-c]quinazolin-5-yl]amino}-1,4-oxazepan-5-one], for which the IC50 at AHR [1] was determined as 9.83e-10 M; at AHR [2] (setting [3]), 1.47 nM.
The like results for `O=C1NCCNC[C@H]1Nc1nc2c(C(F)(F)F)cccc2c2nc(-c3ccc(Cl)cc3OC(F)(F)F)nn12` [Example 710, (6R)-6-({2-[4-chloro-2-(trifluoromethoxy)phenyl]-7-(trifluoromethyl)[1,2,4]triazolo[1,5-c]quinazolin-5-yl}amino)-1,4-diazepan-5-one] were, in that order, 4.84e-09 M and 1.8 nM.
Regarding `CS(=O)(=O)c1ccc(-c2nc3c4ccccc4nc(N[C@@H]4CNCCNC4=O)n3n2)cc1` [Example 714, (6R)-6-({2-[4-(methanesulfonyl)phenyl][1,2,4]triazolo[1,5-c]quinazolin-5-yl}amino)-1,4-diazepan-5-one], the concentration for half-maximal inhibition (IC50) against AHR [1] amounted to 1.64e-07 M; on AHR [2] (setting [3]) it was 134 nM.
`CS(=O)(=O)c1ccc(-c2nc3c4cccc(Br)c4nc(N[C@@H]4CNCCNC4=O)n3n2)cc1` [Example 715, (6R)-6-({7-bromo-2-[4-(methanesulfonyl)phenyl][1,2,4]triazolo[1,5-c]quinazolin-5-yl}amino)-1,4-diazepan-5-one]: the IC50 at AHR [1] was 1.13e-08 M; at AHR [2] (setting [3]), 14.8 nM.
The like results for `N#Cc1ccc(-c2nc3c4cccc(Br)c4nc(N[C@@H]4CNCCNC4=O)n3n2)cc1` [Example 717, 4-(7-bromo-5-{[(6R)-5-oxo-1,4-diazepan-6-yl]amino}[1,2,4]triazolo[1,5-c]quinazolin-2-yl)benzonitrile] were, in that order, 7.05e-10 M and 0.95 nM.
The like results for `N#Cc1ccc(-c2nc3c4ccccc4nc(N[C@@H]4CNCCNC4=O)n3n2)cc1` [Example 718, 4-(5-{[(6R)-5-oxo-1,4-diazepan-6-yl]amino}[1,2,4]triazolo[1,5-c]quinazolin-2-yl)benzonitrile] were, in that order, 1.93e-08 M and 8.12 nM.
The like results for `O=C1NCCNC[C@H]1Nc1nc2ccccc2c2nc(-c3cc(F)ccc3OC(F)(F)F)nn12` [Example 719, (6R)-6-({2-[5-fluoro-2-(trifluoromethoxy)phenyl][1,2,4]triazolo[1,5-c]quinazolin-5-yl}amino)-1,4-diazepan-5-one] were, in that order, 9.56e-06 M and 239 nM.
With `O=C1NCCNC[C@H]1Nc1nc2ccccc2c2nc(-c3ccccc3OC(F)(F)F)nn12` [Example 720, (6R)-6-({2-[2-(trifluoromethoxy)phenyl][1,2,4]triazolo[1,5-c]quinazolin-5-yl}amino)-1,4-diazepan-5-one], the results for the 50% inhibitory concentration (IC50) against AHR [1] and at AHR [2] (setting [3]) were 1.45e-07 M and 63.8 nM, respectively.
The like results for `COc1ccc(-c2nc3c4cccc(C#N)c4nc(N[C@@H]4CCCCNC4=O)n3n2)cc1` [Example 721, 2-(4-methoxyphenyl)-5-{[(3R)-2-oxoazepan-3-yl]amino}[1,2,4]triazolo[1,5-c]quinazoline-7-carbonitrile] were, in that order, 2.47e-09 M and 10.6 nM.
The like results for `COc1ccc(-c2nc3c4ccccc4nc(N[C@@H]4CCCCNC4=O)n3n2)cc1C(F)(F)F` [Example 722, (3R)-3-({2-[4-methoxy-3-(trifluoromethyl)phenyl][1,2,4]triazolo[1,5-c]quinazolin-5-yl}amino)azepan-2-one] were, in that order, 7.2e-09 M and 6.63 nM.
The like results for `Cn1cc(-c2nc3c4cccc(C(F)(F)F)c4nc(N[C@@H]4COCCNC4=O)n3n2)cn1` [Example 732, (6R)-6-{[2-(1-methyl-1H-pyrazol-4-yl)-7-(trifluoromethyl)[1,2,4]triazolo[1,5-c]quinazolin-5-yl]amino}-1,4-oxazepan-5-one] were, in that order, 1.32e-09 M and 6.14 nM.
As for `CN1CC[C@@H](Nc2nc3c(C(F)(F)F)cccc3c3nc(-c4cnn(C)c4)nn23)C1=O` [Example 733, (3R)-1-methyl-3-{[2-(1-methyl-1H-pyrazol-4-yl)-7-(trifluoromethyl)[1,2,4]triazolo[1,5-c]quinazolin-5-yl]amino}pyrrolidin-2-one], the 50% inhibitory concentration (IC50) against AHR [1] turned out to be 2.58e-07 M; on AHR [2] (setting [3]), 6640 nM.
The like results for `Cc1c(-c2nc3c4cccc(C(F)(F)F)c4nc(N[C@@H]4CCCCNC4=O)n3n2)cnn1C` [Example 734, (3R)-3-{[2-(1,5-dimethyl-1H-pyrazol-4-yl)-7-(trifluoromethyl)[1,2,4]triazolo[1,5-c]quinazolin-5-yl]amino}azepan-2-one] were, in that order, 3.94e-09 M and 8.92 nM.
